Measurements: US20220333108A1, “COMBINATIONS OF SIRNAS WITH SIRNAS AGAINST SULF2 OR GPC3 FOR USE IN TREATING CANCER” (Sirnaomics, Inc., priority 2021, published 2022)

System: HepG2 cells
Experiment: Sulf2 silencing and Sorafenib in liver cancer cell model
Assay type: cell-based
Details: Homo sapiens, Sorafenib exposure 72 h, read-out: IC50 in inhibiting tumor growth (Sorafenib)
Experimental: The effect of Sulf2 silencing in combination with Sorafenib in a liver cancer cell model (HepG2 cells) was studied. HepG2 cells incubated with various concentrations of SULF2_1 siRNA for 96 h, and Sorafenib (404) was added after 24 h to allow exposure for 72 h.

IC50: ~4 µM
Structure (SMILES): CNC(=O)c1cc(Oc2ccc(NC(=O)Nc3ccc(Cl)c(C(F)(F)F)c3)cc2)ccn1 [Sorafenib, sorafenib]
